# In patent publication US9085555B2, “Complement pathway modulators and uses thereof” (priority 2011, dated 2015):
# Structures can show the parent of a compound that is named as a salt.
# Target: Factor D (Homo sapiens (Human), UniProt P00746)
# Assay: biochemical
# Format: biochemical
# Details: read-out: IC50
# Sequence of Factor D (P00746 26-253): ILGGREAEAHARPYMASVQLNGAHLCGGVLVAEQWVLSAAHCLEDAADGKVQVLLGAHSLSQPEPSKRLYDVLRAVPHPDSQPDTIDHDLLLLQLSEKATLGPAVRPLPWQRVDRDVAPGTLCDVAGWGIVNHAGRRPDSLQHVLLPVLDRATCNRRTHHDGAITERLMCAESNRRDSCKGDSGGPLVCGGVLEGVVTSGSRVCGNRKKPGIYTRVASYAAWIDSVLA
row,Molecule,IC50 [nM]
1,"Cc1cc2c(C(N)=O)nn(CC(=O)N3[C@@H]4C[C@@H]4C[C@H]3C(=O)NCc3cccc(Cl)c3F)c2c(C)n1 [Example 695, 1-{2-[(1R,3S,5R)-3-(3-Chloro-2-fluoro-benzylcarbamoyl)-2-aza-bicyclo[3.1.0]hex-2-yl]-2-oxo-ethyl}-5,7-dimethyl-1H-pyrazolo[3,4-c]pyridine-3-carboxylic acid amide]",15
2,"NC(=O)n1cc(NC(=O)N2[C@@H]3C[C@@H]3C[C@H]2C(=O)NCc2cccc(Cl)c2F)c2cc(CCO)ccc21 [Example 385, 1R,3S,5R)-2-Aza-bicyclo[3.1.0]hexane-2,3-dicarboxylic acid 2-{[1-carbamoyl-5-(2-hydroxy-ethyl)-1H-indol-3-yl]-amide}3-(3-chloro-2-fluoro-benzylamide]",7
3,"CC(=O)c1cn(CC(=O)N2[C@@H]3C[C@@H]3C[C@H]2C(=O)Nc2cc(Br)cc(-c3nnn[nH]3)c2)c2ccccc12 [Example 515, (1R,3S,5R)-2-[2-(3-Acetyl-indol-1-yl)-acetyl]-2-aza-bicyclo[3.1.0]hexane-3-carboxylic acid [3-bromo-5-(2H-tetrazol-5-yl)-phenyl]-amide]",268
4,"NC(=O)n1cc(CC(=O)N2C[C@H](F)C[C@H]2C(=O)Nc2cccc(OC(F)(F)F)c2F)c2ccccc21 [Example 442, 3-{2-[(2S,4R)-4-Fluoro-2-(2-fluoro-3-trifluoromethoxy-phenylcarbamoyl)-pyrrolidin-1-yl]-2-oxo-ethyl}-indole-1-carboxylic acid amide]",850
5,"CO[C@H]1[C@@H](C(=O)NCc2cccc(Cl)c2F)N(C(=O)Cn2cc(C(C)=O)c3cc(C)ncc32)C[C@@H]1F [Example 658, (2S,3S,4S)-1-[2-(3-Acetyl-5-methyl-pyrrolo[2,3-c]pyridin-1-yl)-acetyl]-4-fluoro-3-methoxy-pyrrolidine-2-carboxylic acid 3-chloro-2-fluoro-benzylamide formate]",24
6,"NC(=O)n1cc(NC(=O)N2C3CC3C[C@H]2C(=O)Nc2cccc(Cl)c2F)c2ccccc21 (stereo partly drawn) [Example 176, (1R,3S,5R)-2-Aza-bicyclo[3.1.0]hexane-2,3-dicarboxylic acid 2-[(1-carbamoyl-1H-indol-3-yl)-amide] 3-[(3-chloro-2-fluoro-phenyl)-amide]]",30
7,"CC(=O)N[C@@H]1CN(C(=O)Nc2cn(C(N)=O)c3ccccc23)[C@H](C(=O)NCc2cccc(Cl)c2F)[C@H]1F [Example 211, (2R,3S,4R)-4-Acetylamino-3-fluoro-pyrrolidine-1,2-dicarboxylic acid 1-[(1-carbamoyl-1H-indol-3-yl)-amide] 2-(3-chloro-2-fluoro-benzylamide)]",1320
8,"CC(=O)c1cn(CC(=O)N2[C@@H]3C[C@@H]3C[C@H]2C(=O)N[C@H](C)c2cccc(Cl)c2F)c2cnccc12 [Example 641, (1R,3S,5R)-2-[2-(3-Acetyl-pyrrolo[2,3-c]pyridin-1-yl)-acetyl]-2-aza-bicyclo[3.1.0]hexane-3-carboxylic acid [(R)-1-(3-chloro-2-fluoro-phenyl)-ethyl]-amide]",32
9,"Cn1nc(-c2ccccc2)cc1NC(=O)[C@@H]1CCCN1C(=O)Nc1cn(C(N)=O)c2ccccc12 [Example 199, (S)-Pyrrolidine-1,2-dicarboxylic acid 1-[(1-carbamoyl-1H-indol-3-yl)-amide] 2-[(2-methyl-5-phenyl-2H-pyrazol-3-yl)-amide]]",8650
10,"NC(=O)n1cc(NC(=O)N2[C@@H]3C[C@@H]3C[C@H]2C(=O)Nc2cc(Br)cc(-c3nnn[nH]3)c2)c2ccccc21 [Example 344, (1R,3S,5R)-2-Aza-bicyclo[3.1.0]hexane-2,3-dicarboxylic acid 3-{[3-bromo-5-(1H-tetrazol-5-yl)-phenyl]-amide}2-[(1-carbamoyl-1H-indol-3-yl)-amide]]",68
11,"CC(=O)c1cn(CC(=O)N2CCCC[C@H]2C(=O)NCc2cccc(Cl)c2F)c2ccccc12 [Example 478, (S)-1-[2-(3-Acetyl-indol-1-yl)-acetyl]-piperidine-2-carboxylic acid 3-chloro-2-fluoro-benzylamide]",258
12,"CC(=O)NC[C@H]1CC[C@@H](C(=O)Nc2cccc(OC(F)(F)F)c2)N1C(=O)Nc1cn(C(N)=O)c2ccccc12 [Example 139, (2S,5R)-5-(Acetylamino-methyl)-pyrrolidine-1,2-dicarboxylic acid 1-[(1-carbamoyl-1H-indol-3-yl)-amide] 2-[(3-trifluoromethoxy-phenyl)-amide]]",1500
13,"CC(=O)c1cn(CC(=O)N2[C@@H]3C[C@@H]3C[C@H]2C(=O)NCc2cccc(Cl)c2F)c2cccnc12 [Example 553, (1R,3S,5R)-2-[2-(3-Acetyl-pyrrolo[3,2-b]pyridin-1-yl)-acetyl]-2-aza-bicyclo[3.1.0] hexane-3-carboxylic acid 3-chloro-2-fluoro-benzylamide]",5300
14,"CC(=O)c1cn(CC(=O)N2[C@@H]3C[C@@H]3C[C@H]2C(=O)NCc2ccc(Cl)s2)c2ncccc12 [Example 484, (1R,3S,5R)-2-[2-(3-Acetyl-pyrrolo[2,3-b]pyridin-1-yl)-acetyl]-2-aza-bicyclo[3.1.0]hexane-3-carboxylic acid (5-chloro-thiophen-2-ylmethyl)-amide]",358
15,"CC(=O)c1cn(CC(=O)N2[C@@H]3C[C@@H]3C[C@H]2C(=O)NCc2cccc(Cl)c2F)c2ccc(C(=O)O)cc12 [Example 603, 3-Acetyl-1-{2-[(1R,3S,5R)-3-(3-chloro-2-fluoro-benzylcarbamoyl)-2-aza-bicyclo[3.1.0]hex-2-yl]-2-oxo-ethyl}-1H-indole-5-carboxylic acid]",1610
16,"N#CCOc1ccc2c(c1)c(NC(=O)N1[C@@H]3C[C@@H]3C[C@H]1C(=O)NCc1cccc(Cl)c1F)cn2C(N)=O [Example 373, 1R,3S,5R)-2-Aza-bicyclo[3.1.0]hexane-2,3-dicarboxylic acid 2-[(1-carbamoyl-5-cyanomethoxy-1H-indol-3-yl)-amide]3-(3-chloro-2-fluoro-benzylamide]",1
17,"NC(=O)n1cc(NC(=O)N2C[C@@H](N)C[C@H]2C(=O)Nc2ccccc2)c2ccccc21 [Example 27, (2S,4S)-4-Amino-pyrrolidine-1,2-dicarboxylic acid 1-[(1-carbamoyl-1H-indol-3-yl)-amide] 2-phenylamide]",8300
18,"CC(=O)c1nn(CC(=O)N2[C@@H]3C[C@@H]3C[C@H]2C(=O)N[C@H](CO)c2cccc(Cl)c2F)c2ncccc12 [Example 677, (1R,3S,5R)-2-[2-(3-Acetyl-pyrazolo[3,4-b]pyridin-1-yl)-acetyl]-2-aza-bicyclo [3.1.0]hexane-3-carboxylic acid [(S)-1-(3-chloro-2-fluoro-phenyl)-2-hydroxy-ethyl]-amide]",10
19,"COc1ccc2c(NC(=O)N3C4CC4C[C@H]3C(=O)NCc3cccc(Cl)c3F)cn(C(N)=O)c2c1 (stereo partly drawn) [Example 216, (1R,3S,5R)-2-Aza-bicyclo[3.1.0]hexane-2,3-dicarboxylic acid 2-[(1-carbamoyl-6-methoxy-1H-indol-3-yl)-amide] 3-(3-chloro-2-fluoro-benzylamide)]",65
20,"NC(=O)n1cc(NC(=O)N2C[C@H]3OC3[C@H]2C(=O)NCc2cccc(Cl)c2F)c2ccccc21 (stereo partly drawn) [Example 197, (1S,2S,5R)-6-Oxa-3-aza-bicyclo[3.1.0]hexane-2,3-dicarboxylic acid 3-[(1-carbamoyl-1H-indol-3-yl)-amide] 2-(3-chloro-2-fluoro-benzylamide)]",100
21,"NC(=O)n1cc(NC(=O)N2C[C@H](F)C[C@H]2C(=O)NCc2cccc(Cl)c2)c2ccccc21 [Example 8, (2S,4R)-4-Fluoro-pyrrolidine-1,2-dicarboxylic acid 1-[(1-carbamoyl-1H-indol-3-yl)-amide] 2-(3-chloro-benzylamide)]",9
22,"2S,3R)-3-Acetylamino-pyrrolidine-1,2-dicarboxylic acid 1-[(1-carbamoyl-1H-indol-3-yl)-amide]2-(3-chloro-2-fluoro-benzylamide [Example 422]",888
23,"NC(=O)n1cc(NC(=O)N2C3CC3C[C@H]2C(=O)NCc2cccc(Cl)c2F)c2ccc(O)cc21 (stereo partly drawn) [Example 392, 1R,3S,5R)-2-Aza-bicyclo[3.1.0]hexane-2,3-dicarboxylic acid 2-[(1-carbamoyl-6-hydroxy-1H-indol-3-yl)-amide]3-(3-chloro-2-fluoro-benzylamide]",7
24,"Cc1cc2c(cn1)c(C(N)=O)nn2CC(=O)N1[C@@H]2C[C@@H]2C[C@H]1C(=O)Nc1cccc(OC(F)(F)F)c1F [Example 713, 1-{2-[(1R,3S,5R)-3-(2-Fluoro-3-trifluoromethoxy-phenylcarbamoyl)-2-aza-bicyclo[3.1.0]hex-2-yl]-2-oxo-ethyl}-6-methyl-1H-pyrazolo[4,3-c]pyridine-3-carboxylic acid amide]",260
25,"NC(=O)n1cc(NC(=O)N2[C@@H]3C[C@@H]3C[C@H]2C(=O)N[C@H](CO)c2cccc(Cl)c2F)c2ccccc21 [Example 203, (1R,3S,5R)-2-Aza-bicyclo[3.1.0]hexane-2,3-dicarboxylic acid 2-[(1-carbamoyl-1H-indol-3-yl)-amide] 3-{[(S)-1-(3-chloro-2-fluoro-phenyl)-2-hydroxy-ethyl]-amide}]",6
26,"CN(C)C[C@@H](NC(=O)[C@@H]1C[C@@H](F)CN1C(=O)Nc1cn(C(N)=O)c2ccccc12)c1cccc(Cl)c1F [Example 248, (2S,4R)-4-Fluoro-pyrrolidine-1,2-dicarboxylic acid 1-[(1-carbamoyl-1H-indol-3-yl)-amide] 2-{[(S)-1-(3-chloro-2-fluoro-phenyl)-2-dimethylamino-ethyl]-amide}]",119
27,"CCC[C@H](NC(=O)[C@@H]1C[C@H](N)CN1C(=O)Nc1cn(C(N)=O)c2ccccc12)C(=O)OC [Example 93, (S)-2-{[(2S,4S)-4-Amino-1-(1-carbamoyl-1H-indol-3-ylcarbamoyl)-pyrrolidine-2-carbonyl]-amino}-pentanoic acid methyl ester]",4000
28,"NC(=O)c1cn(CC(=O)N2C[C@H](F)C[C@H]2C(=O)NCc2cccc(Cl)c2F)c2cc(OCc3nn[nH]n3)ccc12 [Example 585, 1-{2-[(2S,4R)-2-(3-Chloro-2-fluoro-benzylcarbamoyl)-4-fluoro-pyrrolidin-1-yl]-2-oxo-ethyl}-6-(1H-tetrazol-5-ylmethoxy)-1H-indole-3-carboxylic acid amide]",17
